{"source": "patent US20090110724A1", "about": "“COMPOSITIONS AND METHODS FOR TREATMENT OF PAIN” (Everett Laboratories, Inc., priority 2007, published 2009)", "origin": "cited, not measured here", "key": {"[1]": {"settings": "cold water"}, "[2]": {"tested_on": "COX-3", "settings": "Simmons et al. 2002"}}, "data": [{"smiles": "C=CCC1(CC(C)C)C(=O)NC(=O)NC1=O", "note": "[Butalbital, 5-allyl-5-isobutylbarbituric acid]", "values": [{"measurement": "solubility", "setting": "[1]", "value": "slightly soluble"}]}, {"smiles": "CC(=O)Nc1ccc(O)cc1", "note": "[acetaminophen, N-(4-hydroxyphenyl)acetamide]", "values": [{"measurement": "inhibition of COX-3", "setting": "[2]", "value": "strong inhibition"}]}]}
